Laboratory results from patent publication US7405299B2, “Compounds as pharmaceutical agents” (Eli Lilly and Company, priority 2003, dated 2008).

melting point	Compound
140 to 142 °C	c1ccc(-c2nn3c(c2-c2cccc4nsnc24)CCC3)nc1 [Example 4, 4-[2-(Pyridin-2-yl)-5,6-dihydro-4H-pyrrolo[1,2-b]pyrazol-3-yl]-benzo [2,1,3]thiadiazole]
184 to 186 °C	c1ccc(-c2nn3c(c2-c2ccc4nsnc4c2)CCC3)nc1 [Example 5, 5-[2-(Pyridin-2-yl)-5,6-dihydro-4H-pyrrolo[1,2-b]pyrazol-3-yl]benzo[2,1,3]thiadiazole]
170 to 172 °C	c1ccc(-c2nn3c(c2-c2nc4ncccc4[nH]2)CCC3)nc1 [Example 8, 2-[2-(Pyridin-2-yl)-5,6-dihydro-4H-pyrrolo[1,2-b]pyrazol-3-yl]-1H-imidazo[4,5-b]pyridine]
201 to 203 °C	c1ccc(-c2nn3c(c2-c2nc4cnccc4[nH]2)CCC3)nc1 [Example 9, 2-[2-(Pyridin-2-yl)-5,6-dihydro-4H-pyrrolo[1,2-b]pyrazol-3-yl]-1H-imidazo[4,5-c]pyridine]
172 to 175 °C	c1ccc(-c2nn3c(c2-c2nc4ccccc4[nH]2)CCC3)nc1 [Example 10, 2-[2-(Pyridin-2-yl)-5,6-dihydro-4H-pyrrolo[1,2-b]pyrazol-3-yl]-1H-benzoimidazole]
182 to 184 °C	c1ccc(-c2nn3c(c2-c2nc4ncccc4o2)CCC3)nc1 [Example 11, 2-[2-(Pyridin-2-yl)-5,6-dihydro-4H-pyrrolo[1,2-b]pyrazol-3-yl]-oxazolo[4,5-b]pyridine]
180 to 184 °C	c1ccc(-c2nn3c(c2-c2cncc4cccnc24)CCC3)nc1 [Example 80a, 8-(2-Pyridin-2-yl-5,6-dihydro-4H-pyrrolo[1,2-b]pyrazol-3-yl)-[1,6]naphthyridine]
